Data: the supplement of paper PMC10307832

Tests used:
Assay in all cases: relative viability (nuclei count vs DMSO), 5 days (fraction); higher = more cells survive
[1] = compound: CCN(CCO)CCCC(C)Nc1ccnc2cc(Cl)ccc12 [Hydroxychloroquine] + CC1(C)CCC(c2ccc(Cl)cc2)=C(CN2CCN(c3ccc(C(=O)NS(=O)(=O)c4ccc(N[C@H](CCN5CCOCC5)CSc5ccccc5)c(S(=O)(=O)C(F)(F)F)c4)cc3)CC2)C1 [Navitoclax] (partner 0.5 µM)
Summary of the method: (§1)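 Relative viability was taken as the ratio of nuclei in treated wells to nuclei in vehicle wells. Lung cancer cell lines in 1536-well plates received compounds by pin tool one day after seeding, either one drug alone or a fixed anchor-drug dose plus five library-drug doses (not always all listed) in √10 steps. Nuclei were counted on 4× images after 5 days of treatment, and values are medians of duplicate plates.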

[2] = compound: CCN(CCO)CCCC(C)Nc1ccnc2cc(Cl)ccc12 [Hydroxychloroquine] + C[C@@H](Oc1cc(-c2cnn(C3CCNCC3)c2)cnc1N)c1c(Cl)ccc(F)c1Cl [Crizotinib] (partner 1 µM)
Summary of the method: as §1

[3] = compound: CCN(CCO)CCCC(C)Nc1ccnc2cc(Cl)ccc12 [Hydroxychloroquine] + O=C(CCCCCCC(=O)Nc1ccccc1)NO [Vorinostat] (partner 1 µM)
Summary of the method: as §1

[4] = compound: CCN(CCO)CCCC(C)Nc1ccnc2cc(Cl)ccc12 [Hydroxychloroquine] + Cc1cc(Nc2cc(N3CCN(C)CC3)nc(Sc3ccc(NC(=O)C4CC4)cc3)n2)n[nH]1 [Tozasertib] (partner 0.1 µM)
Summary of the method: as §1

Cell Line | relative viability ([1]; first compound 0.5 µM) | relative viability ([1]; first compound 1.581 µM) | relative viability ([1]; first compound 5 µM) | relative viability ([1]; first compound 15.81 µM) | relative viability ([1]; first compound 50 µM) | relative viability ([2]; first compound 0.5 µM) | relative viability ([2]; first compound 1.581 µM) | relative viability ([2]; first compound 5 µM) | relative viability ([2]; first compound 15.81 µM) | relative viability ([2]; first compound 50 µM) | relative viability ([3]; first compound 0.5 µM) | relative viability ([3]; first compound 1.581 µM) | relative viability ([3]; first compound 5 µM) | relative viability ([3]; first compound 15.81 µM) | relative viability ([3]; first compound 50 µM) | relative viability ([4]; first compound 0.5 µM) | relative viability ([4]; first compound 1.581 µM) | relative viability ([4]; first compound 5 µM) | relative viability ([4]; first compound 15.81 µM) | relative viability ([4]; first compound 50 µM)
COR-L 105 | 0.595 | 0.747 | 0.778 | 0.816 | 0.594 | 0.871 | 0.838 | 0.901 | 0.835 | 0.79 | 0.87 | 0.807 | 0.628 | 0.743 | 0.804 | 0.353 | 0.349 | 0.376 | 0.376 | 0.333
LK-2 | 0.777 | 0.763 | 0.809 | 0.914 | 0.632 | 0.246 |  | 0.198 | 0.181 | 0.197 | 0.318 | 0.274 | 0.248 | 0.299 | 0.294 | 0.176 | 0.167 |  | 0.176 | 0.154
NCI-H838 | 1.16 | 1.11 | 1.13 | 1.14 | 1.24 | 0.805 | 0.8 | 0.823 | 0.829 | 0.974 | 0.721 | 0.667 | 0.803 | 0.716 | 0.721 | 0.234 | 0.241 | 0.23 | 0.281 | 0.281
SK-LU-1 | 0.747 | 0.96 | 0.851 | 1.21 | 0.658 | 0.948 | 0.895 | 0.911 | 0.928 | 0.938 | 0.779 | 0.719 | 0.804 | 0.799 | 0.643 | 0.367 | 0.339 | 0.325 | 0.342 | 0.323
NCI-H2023 | 1.09 | 0.985 | 1.03 | 0.974 | 1.03 | 0.652 | 0.565 | 0.619 | 0.614 | 0.737 | 0.788 | 0.574 | 0.687 | 0.706 | 0.85 | 0.35 | 0.339 | 0.344 | 0.36 | 0.36
NCI-H322M | 1 | 1.15 | 1.12 | 1.15 | 1.43 | 0.996 | 0.922 | 0.894 | 0.927 | 1.02 | 0.849 | 0.877 | 0.83 | 0.839 | 0.991 | 0.506 | 0.478 | 0.484 | 0.547 | 0.49
NCI-H1666 | 0.921 | 0.951 | 0.986 | 0.827 | 0.918 | 0.872 | 1.11 | 0.948 | 0.837 | 1.14 | 0.991 | 0.943 | 1.01 | 0.92 | 0.936 | 0.612 | 0.557 | 0.658 | 0.636 | 0.552
NCI-H1648 |  |  |  |  |  |  |  |  |  |  | 0.458 | 0.44 | 0.422 | 0.68 | 0.503 |  | 0.498 | 0.684 | 0.486 | 0.412
NCI-H2087 | 0.972 | 0.938 | 1.04 | 1.16 | 1.04 | 1.02 | 0.982 | 1.09 | 0.864 | 1.11 | 0.719 | 0.74 | 0.778 | 0.798 | 0.609 | 0.265 | 0.22 | 0.317 | 0.261 | 0.284
LU99A | 0.858 | 0.707 | 0.93 | 0.679 | 0.749 | 0.566 | 0.533 | 0.593 | 0.606 | 0.66 | 0.559 | 0.474 | 0.465 | 0.435 | 0.507 | 0.243 | 0.229 | 0.281 | 0.256 | 0.284
HCC-366 | 1.09 | 1.04 | 0.963 | 1.07 | 1.16 | 0.698 | 0.607 | 0.402 | 0.514 | 0.612 | 0.339 | 0.232 | 0.301 | 0.338 | 0.434 | 0.109 | 0.132 | 0.138 | 0.0907 | 0.144
EKVX | 1.1 | 0.919 | 1.07 | 1.04 | 0.943 | 1.01 | 0.919 | 0.814 | 0.907 | 0.963 | 0.688 | 0.609 | 0.677 | 0.767 | 0.648 | 0.401 | 0.316 | 0.38 | 0.374 | 0.494
NCI-H522 |  |  |  |  |  |  |  |  |  |  | 0.832 |  | 0.882 | 0.904 | 1.01 | 0.524 | 0.619 | 0.607 | 0.632 | 0.525
NCI-H1755 | 1.03 | 0.905 | 0.933 | 0.972 | 0.926 | 0.983 | 0.768 | 0.86 | 0.866 | 0.879 | 0.79 | 0.656 | 0.778 | 0.734 | 0.737 | 0.672 | 0.548 | 0.569 | 0.656 | 0.587
NCI-H650 |  |  |  |  |  | 0.787 | 0.63 |  | 0.675 | 0.835 | 0.478 | 0.432 | 0.397 | 0.42 | 0.478 | 0.736 | 0.692 | 0.681 | 0.763 | 0.708
LC-2-ad | 0.337 | 0.332 | 0.478 | 0.416 | 0.405 | 0.44 | 0.426 |  | 0.473 | 0.547 | 0.707 | 0.691 | 0.694 | 0.702 | 0.697 | 0.447 | 0.478 | 0.415 | 0.463 | 0.455
NCI-H1793 | 0.331 | 0.32 | 0.404 | 0.389 | 0.547 |  |  |  |  |  | 0.791 | 0.606 | 0.548 | 0.638 | 0.804 | 0.521 | 0.266 | 0.268 | 0.366 | 0.308

Cell Line | relative viability ([1]; first compound 0.5 µM) | relative viability ([1]; first compound 1.581 µM) | relative viability ([1]; first compound 5 µM) | relative viability ([1]; first compound 15.81 µM) | relative viability ([1]; first compound 50 µM) | relative viability ([2]; first compound 0.5 µM) | relative viability ([2]; first compound 1.581 µM) | relative viability ([2]; first compound 5 µM) | relative viability ([2]; first compound 15.81 µM) | relative viability ([2]; first compound 50 µM) | relative viability ([3]; first compound 0.5 µM) | relative viability ([3]; first compound 1.581 µM) | relative viability ([3]; first compound 5 µM) | relative viability ([3]; first compound 15.81 µM) | relative viability ([3]; first compound 50 µM) | relative viability ([4]; first compound 0.5 µM) | relative viability ([4]; first compound 1.581 µM) | relative viability ([4]; first compound 5 µM) | relative viability ([4]; first compound 15.81 µM) | relative viability ([4]; first compound 50 µM)
HCC-827 | 0.941 | 1.02 | 1.03 | 1.1 | 1.02 | 0.86 | 0.916 | 1.01 | 0.976 | 0.871 | 0.811 | 0.873 | 0.786 | 0.759 | 0.571 | 0.442 | 0.442 | 0.513 | 0.467 | 0.456
HCC-78 | 0.865 | 0.82 | 0.993 | 0.768 | 0.777 | 0.349 | 0.325 | 0.338 | 0.314 | 0.358 | 0.632 | 0.381 | 0.438 | 0.446 | 0.509 | 0.438 | 0.459 | 0.478 | 0.305 | 0.466
NCI-H2085 | 1.03 | 1.04 | 1.25 | 1.03 | 1.2 | 0.904 | 0.783 | 0.826 | 0.753 | 0.847 | 0.853 | 0.63 | 0.822 | 0.847 | 0.873 | 0.858 | 0.828 | 0.799 | 0.813 | 0.884
PC-3 [JPC-3] | 0.851 | 0.776 | 0.83 | 0.67 | 0.85 | 0.999 | 1 | 1.06 | 0.98 | 1.16 | 0.918 | 0.847 | 0.652 | 0.737 | 0.782 | 0.859 | 0.959 | 0.973 | 0.948 | 0.901
NCI-H2342 |  |  |  |  |  |  |  |  |  |  | 0.713 | 0.812 | 0.812 | 0.813 | 0.848 | 0.493 | 0.467 | 0.439 | 0.508 | 0.627
A-427 | 0.875 | 0.776 | 0.993 | 0.919 | 1.04 | 0.935 | 0.869 | 0.94 | 0.838 | 0.973 | 0.919 | 0.826 | 0.834 | 0.807 | 0.79 | 0.207 | 0.172 | 0.2 | 0.207 | 0.232
ABC-1 |  |  |  |  |  | 1.13 | 0.981 | 1.46 | 1.2 | 1.09 | 1.33 | 1.19 | 1.11 | 0.934 | 1.19 | 0.162 | 0.136 | 0.166 | 0.172 | 0.165
NCI-H358 |  |  |  |  |  | 0.515 | 0.579 | 0.587 | 0.516 | 0.591 | 0.695 | 0.731 | 0.72 | 0.673 | 0.655 | 0.097 | 0.096 | 0.115 | 0.108 | 0.0849
EBC-1 | 0.371 | 0.387 | 0.418 | 0.412 | 0.374 | 0.196 | 0.181 | 0.181 | 0.189 | 0.189 |  |  |  |  |  |  |  |  |  | 
NCI-H661 |  |  |  |  |  | 0.939 | 0.962 | 1.05 | 0.927 | 1.09 | 0.827 | 0.828 | 0.782 | 0.802 | 0.782 | 0.358 | 0.32 | 0.355 | 0.397 | 0.349
NCI-H1792 | 0.509 | 0.607 | 0.686 | 0.367 | 0.451 | 0.951 | 1.05 | 1.01 | 1.08 | 1.07 |  |  |  |  |  |  |  |  |  | 
A549 | 1.24 | 1.09 | 1.26 | 1.29 | 1.19 | 0.832 | 0.643 | 0.781 | 0.735 | 0.805 |  |  |  |  |  |  |  |  |  | 
NCI-H1703 | 1.08 | 0.934 | 1.02 | 1.02 | 1.29 | 0.851 |  | 0.592 | 0.74 | 0.921 |  |  |  |  |  |  |  |  |  | 
LCLC-103H |  |  |  |  |  | 1.03 | 1.01 | 0.951 | 1.04 | 1.14 | 0.859 | 0.718 | 0.752 | 0.829 | 0.793 | 0.433 | 0.404 | 0.541 | 0.507 | 0.56
NCI-H1563 |  |  |  |  |  | 0.808 | 0.833 | 0.848 | 0.83 | 0.806 |  |  |  |  |  |  |  |  |  | 
NCI-H1395 | 1.21 | 1.05 | 1.17 | 1.18 | 1.01 |  |  |  |  |  | 0.756 | 0.716 | 0.606 | 0.743 | 0.674 | 0.74 | 0.717 | 0.73 | 0.824 | 0.723
